Measured values: paper PMC7297445, “Pharmacokinetic/Pharmacodynamic Determination and Preclinical Pharmacokinetics of the β-Lactamase Inhibitor ETX1317 and Its Orally Available Prodrug ETX0282” (ACS Infectious Diseases, 2020)
Where two headings read alike, the source gives them in different places.

Key:
Plasma protein binding [1] = format: in vitro ADME, human
Protocol: (§1) Plasma protein binding was determined by rapid equilibrium dialysis. Plasma was freshly prepared from blood samples drawn in to EDTA (anticoagulant) containing tubes. Plasma was prepared using a table-top centrifuge and spun per instruction of the tube manufacturer and specifications (Beckton, Dickinson and Company, Franklin Lakes, NJ) and placed on ice prior to use.
(§2) Pooled plasma samples were centrifuged at 2000 rpm (approximately 1400g) for 15 min at 4 °C to remove debris. Approximately 90% of the clear supernatant fraction was transferred to a separate tube. Samples (500 μL) were then spiked with a 100× stock solution 100 μM, 0.5 mM, and 10 mM ETX1317 in DMSO respectively for 1, 5, and 100 μM final concentrations, transferred to the top of the filter chambers, and allowed to equilibrate for 15 min prior to centrifugation. The filtrate tubes were centrifuged at 14000g for 15 min at 4 °C. Next, 50 μL of the filtrate was precipitated with 300 μL of acetonitrile containing 250 ng/mL of carbutamide as the internal standard and the samples were analyzed by LC/MS/MS analysis.

[2] = Intravenous pharmacokinetics of ETX1317; format: in vivo, monkey
Protocol: (§3) Intravenous pharmacokinetics of ETX1317 investigated in jugular vein cannulated male Sprague–Dawley rats (Charles River Laboratories, n = 3/route) at a dose of 10 mg/kg formulated in 0.9% saline. Oral pharmacokinetics of ETX0282 was evaluated at a 10 mg/kg equivalent dose of ETX1317 formulated in 25:75 PEG 400:WFI. The pH of each formulation was verified to fall within a range of 4–7 and were confirmed to be in solution prior to dosing. Potency was verified by LC/MS/MS. Dose volumes were 5 and 10 mL/kg for ETX1317(i.v.) and ETX0282(p.o.), respectively for rats. In both dog (male, 3/route) and monkey (male, 3/route) studies, i.v. and p.o. doses were formulated on 25:75 PEG 400:WFI (pH ∼5) and administered at a dose of ∼1 mg/kg. Dose volume was 1 mL/kg for both routes in dogs and monkeys with the i.v. dose infused over 15 min. For oral doses, gavage tubes were flushed with 10 mL after administration of the dose. i.v. doses were sterile-filtered through 0.22 μm PVDF membrane prior to administration into the cephalic vein.
(§4) Blood sampling (∼1 mL) for dogs and monkeys was carried out via venipuncture of the jugular vein at the following time points:
(§5) i.v.: pre-dose, 0.083, 0.25 (prior to end of infusion), 0.5, 1, 1.5, 2, 4, 6, 8, 12, and 24 h post-dose
(§6) Blood samples were centrifuged at 3200 rpm for 10 min at approximately 5 °C. Plasma samples (500 μL) were transferred to 96-well plate tubes (MatrixTech, 0.5 mL). An equal amount (500 μL) of SIGMAFAST protease inhibitor solution (1 tablet dissolved in 10 mL distilled water, Sigma-Aldrich Part No. S8820) was added as a preservative to the 96-well plate tubes resulting in a 1:1 dilution. Diluted plasma samples were stored at −80 ± 10 °C.
(§7) Urine collection was collected directly into Nalgene bottles placed under metabolism cages with frozen ice packs to chill urine over the collection interval. Urine was collected 0–12, and 12–24 h post-dose. Following collection of each urine sample, the total urine weight was recorded and 3 mL aliquots were retained for LC/MS/MS analysis.
(§8) Non-compartmental analysis of time vs concentration data for ETX1317, ETX0282, CPD, and CPDP was completed using WinNonlin 8.1 (Pharsite Corporation, Mountain View CA). The maximum concentration (Cmax) was the highest observed concentration; Tmax was the earliest time at which Cmax occurred; and the elimination half-life was estimated as ln 2/kel, where kel is the elimination rate constant derived from the slope of the log concentration versus time profile. The area under the concentration–time curve from 0 h to the last time point (AUC0-tlast) was calculated by linear trapezoidal approximation. Clearance (CL) was estimated as Dose/AUC0-tlast and the steady state volume of distribution (Vd,ss) was estimated as CL* MRT, where MRT = AUMC/AUC (MRT = mean residence time and AUMC = area under the moment curve). Oral bioavailability (F) was determined from ETX1317 concentrations and normalizing doses to free acid equivalence, where F = AUCp.o.*(dosei.v.)/AUCi.v.*(dosep.o.).

[3] = Intravenous pharmacokinetics of ETX1317; format: in vivo; details: male, dog, i.v. 1 mg/kg
Protocol: as §3, §4, §5, §6, §7, §8

[4] = Stability in liver microsomes; format: in vitro ADME
Protocol: Based upon the non-clinical PK data, a range of 60–80% bioavailability and a moderate absorption rate of 0.5–1.0 h^–1 have been considered for humans. In consideration of these predicted parameters, mean percent fT > CT of 1 μg/mL (2× MIC of 0.5 μg/mL) estimates for a 500 mg ETX1317 equiv q12h dose of ETX0282 are summarized in Table S3.

Plasma protein binding [5] = format: in vitro ADME, mouse
Protocol: as §1, §2

[6] = male, monkey, plasma, iv, i.v. 0.87 mg/kg

## CC1=C[C@@H](C(N)=O)N2C[C@@H]1N(O[C@H](F)C(=O)O)C2=O [ETX1317]
Plasma protein binding [1]; 1 µM
  Proportion unbound: 82%
Plasma protein binding [1]; 5 µM
  Proportion unbound: 99%
Plasma protein binding [1]; 100 µM
  Proportion unbound: 80%
[2]; based upon excretion in the urine, range 23–63%
  renal clearance as % of total clearance: ~40%
[2]; [6]
  AUC: 2680 ± 210 ng·h/mL
  Cmax: 3120 ± 230 ng/mL
  half-life: 66 ± 6 min
[2]; male, monkey, plasma, iv, i.v. 0.87 mg/kg, read-out: CL
  clearance: 5.7 ± 0.7 mL/min/kg
[2]; male, monkey, plasma, iv, i.v. 0.87 mg/kg, read-out: Vd,ss
  Vd: 0.31 ± 0.02 L/kg
[2]; male, monkey, urine and plasma, iv, i.v. 0.87 mg/kg, read-out: renal CL
  clearance: 2.2 mL/min/kg
[3]; plasma
  AUC: 2760 ± 340 ng·h/mL
  Cmax: 2270 ± 490 ng/mL
  half-life: 48 ± 6 min
[3]; plasma, read-out: CL
  clearance: 5.7 ± 0.7 mL/min/kg
[3]; plasma, read-out: Vd,ss
  Vd: 0.38 ± 0.05 L/kg
[3]; urine and plasma, read-out: renal CL
  clearance: 1.1 ± 0.3 mL/min/kg
[4]
  stability in liver microsomes: Good stability
Plasma protein binding [5]; 1 µM
  Proportion unbound: 88%
Plasma protein binding [5]; 5 µM
  Proportion unbound: 100%
Plasma protein binding [5]; 100 µM
  Proportion unbound: 90%
Plasma protein binding [5]; mouse plasma, read-out: percent unbound
  fraction unbound at 15 min: 0.93
